# US11857588B2, “Reproductive cell maintenance system” (Membrane Protective Technologies, Inc., priority 2005, dated 2024)
# Like-named read-outs stand apart in the source and are kept apart here.
# Experiments:
# stallion sperm cells [1] = type: cell-based
# Protocol: In a first experiment (data set out to the right of Exp 1 in Tables 1-6), semen was collected from two stallions via artificial vagina. The motility of each ejaculate was determined subjectively via light microscope and the semen was diluted to a final concentration of about 5×10^8 motile sperm cells/ml with E-Z freezin LE (Animal Reproduction Systems, Chino, Calif.) and combined to one each of thirteen 0.25 mL semen samples was an amount of a corresponding one of thirteen adjuvants: (1) no addition-control (“untreated control semen sample); 2) about 5% cyclodextrin; 3) about 2.5% cyclodextrin; 4) about 5% pulp oil in cyclodextrin; 5) about 2.5% pulp oil in cyclodextrin; 6) about 5% seed oil in cyclodextrin; 7) about 2.5% seed oil in cyclodextrin; 8) emulsion of about 5% seed oil, 9) emulsion of about 2.5% seed oil, 10) emulsion of about 5% pulp oil, 11) emulsion of about 2.5% pulp oil, 12) about 5% juice, and 13) about 2.5% juice. Throughout this description the amount of extract is expressed as a percentage volume to volume (v/v) unless otherwise indicated.
# Following dilution of each semen sample with E-Z freezin LE and combining the diluted semen with the corresponding adjuvant (“treated semen samples”), the treated semen samples were cooled by reducing the temperature at a controlled rate to about 5° C. […]
# stallion sperm cells [2] = type: cell-based; remark: listed apart in the source
# Protocol: In a second experiment (data set out to the right of Exp 2 in Tables 5-6), semen was collected from one stallion via artificial vagina. The motility of the ejaculate was determined objectively using a Hamilton-Thorn sperm analyzer with a 37° C. stage warmer. The assessed data included percentage of motile sperm cells, progressive motile sperm cells, as well as average path velocity, straight line velocity, and straightness of motile sperm cells in accordance with conventional operating procedures for the instrument. […]
# Following dilution of each semen sample with E-Z Mixin CST and the corresponding adjuvant, the treated semen samples were cooled by reducing the temperature at a controlled rate to about 4° C. Motility was evaluated subjectively via light microscope immediately at 24, 38, and 72 h after being held at about 4° C. […]
substance,measurement,setting,value
cyclodextrin,effect on sperm cells (spermicidal),stallion sperm cells [1],spermicidal
same,effect on sperm cells (spermicidal),stallion sperm cells [2],spermicidal
